Data from ChEMBL document CHEMBL2202965 (Bioorg Med Chem Lett, 2012).
Activity calls are given as the source filed them. The calls are words filed in the database; no cut-off is given here. Non-standard residues stand in square brackets, D forms with d. Residues, ends and D or L forms follow the SMILES beside them. ξ: configuration not given here. *: point of attachment. NH(2-(1-naphthyl)ethyl) = c1ccc2c(CCN*)cccc2c1; Phe(4-CONH2) = NC(=O)c1ccc(C[C@H](N)C(=O)O)cc1; Phe(4-COOH) = N[C@@H](Cc1ccc(C(=O)O)cc1)C(=O)O; Tryptamide = c1ccc2c(CCN*)c[nH]c2c1; Tic = O=C(O)[C@@H]1Cc2ccccc2CN1; X3 = c1ccc(-c2ccc(CCN*)cc2)cc1; X2 = c1cc(C2CCCCC2)ccc1CCN*; ξTic = O=C(O)C1Cc2ccccc2CN1; X1 = c1ccc2cc(CCN*)ccc2c1; NHDecyl = CCCCCCCCCCN*; NHHex = CCCCCCN*

Legend:
[1] = biological target: Delta-type opioid receptor (Homo sapiens) (UniProt P41143); assay: Antagonist activity at human delta opioid receptor expressed in HEK293 cells by [35S]GTP binding assay; format: functional, cell-based
[2] = biological target: Kappa-type opioid receptor (Cavia porcellus, UniProt P41144); assay: Displacement of [3H]U69,593 from kappa opioid receptor in guinea pig brain membrane after 2 hrs; format: cell membranes
[3] = Agonist activity at delta opioid receptor in guinea pig ileum; conditions: Cavia porcellus
Cavia porcellus [4] = species on record: Cavia porcellus; assay: Agonist activity at delta opioid receptor in guinea pig ileum at 10 uM; format: functional, tissue-based
[5] = biological target: Delta-type opioid receptor (Mus musculus) (UniProt P32300); assay: Agonist activity at delta opioid receptor in mouse vas deferens relative to DPDPE; format: functional, tissue-based
[6] = biological target: Delta-type opioid receptor (Rattus norvegicus) (UniProt P33533); assay: Displacement of [3H]DSLET from delta opioid receptor in rat brain membrane after 2 hrs relative to DPDPE; format: cell membranes
Cavia porcellus [7] = species on record: Cavia porcellus; assay: (§1) Partial agonist activity at delta opioid receptor in guinea pig ileum; format: functional
[8] = as §1; format: functional; conditions: Cavia porcellus
[9] = biological target: Delta-type opioid receptor (Homo sapiens) (UniProt P41143); assay: Agonist activity at human delta opioid receptor expressed in HEK293 cells by [35S]GTP binding assay relative to DPDPE; format: functional, cell-based
[10] = biological target: Delta-type opioid receptor (Homo sapiens) (UniProt P41143); assay: Partial agonist activity at human delta opioid receptor expressed in HEK293 cells by [35S]GTP binding assay; format: functional, cell-based

Chain of Kappa-type opioid receptor (P41144 whole entry): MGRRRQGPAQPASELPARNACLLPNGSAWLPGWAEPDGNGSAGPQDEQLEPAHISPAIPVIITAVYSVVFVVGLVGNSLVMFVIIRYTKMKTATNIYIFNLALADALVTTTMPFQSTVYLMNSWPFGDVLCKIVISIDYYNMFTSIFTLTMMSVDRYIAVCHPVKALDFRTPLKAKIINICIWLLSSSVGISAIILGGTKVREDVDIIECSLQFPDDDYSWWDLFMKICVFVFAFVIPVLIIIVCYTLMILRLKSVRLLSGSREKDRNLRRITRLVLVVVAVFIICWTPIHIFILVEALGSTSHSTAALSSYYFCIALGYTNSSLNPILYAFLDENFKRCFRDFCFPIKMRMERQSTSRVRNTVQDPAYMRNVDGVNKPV
Chain of Delta-type opioid receptor (Homo sapiens) (P41143 whole entry): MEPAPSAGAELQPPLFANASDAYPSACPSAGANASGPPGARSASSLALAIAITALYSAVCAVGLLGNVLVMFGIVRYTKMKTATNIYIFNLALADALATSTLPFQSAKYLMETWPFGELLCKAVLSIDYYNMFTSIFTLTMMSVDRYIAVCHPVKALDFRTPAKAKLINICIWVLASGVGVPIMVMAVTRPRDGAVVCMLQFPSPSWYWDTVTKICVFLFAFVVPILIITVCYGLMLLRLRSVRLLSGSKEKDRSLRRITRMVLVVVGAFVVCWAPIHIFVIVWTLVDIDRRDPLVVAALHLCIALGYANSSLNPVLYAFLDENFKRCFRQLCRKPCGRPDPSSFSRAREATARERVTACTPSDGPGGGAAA
Chain of Delta-type opioid receptor (Rattus norvegicus) (P33533 whole entry): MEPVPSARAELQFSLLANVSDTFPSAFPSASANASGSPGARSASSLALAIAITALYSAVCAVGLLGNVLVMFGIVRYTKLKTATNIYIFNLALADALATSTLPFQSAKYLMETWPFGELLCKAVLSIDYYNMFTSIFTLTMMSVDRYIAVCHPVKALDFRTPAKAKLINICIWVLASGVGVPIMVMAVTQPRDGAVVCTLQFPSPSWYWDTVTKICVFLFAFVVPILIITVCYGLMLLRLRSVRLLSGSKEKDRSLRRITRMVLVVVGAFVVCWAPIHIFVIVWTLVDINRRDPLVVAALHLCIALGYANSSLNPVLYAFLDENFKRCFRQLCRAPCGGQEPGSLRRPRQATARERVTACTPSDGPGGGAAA
Chain of Delta-type opioid receptor (Mus musculus) (P32300 whole entry): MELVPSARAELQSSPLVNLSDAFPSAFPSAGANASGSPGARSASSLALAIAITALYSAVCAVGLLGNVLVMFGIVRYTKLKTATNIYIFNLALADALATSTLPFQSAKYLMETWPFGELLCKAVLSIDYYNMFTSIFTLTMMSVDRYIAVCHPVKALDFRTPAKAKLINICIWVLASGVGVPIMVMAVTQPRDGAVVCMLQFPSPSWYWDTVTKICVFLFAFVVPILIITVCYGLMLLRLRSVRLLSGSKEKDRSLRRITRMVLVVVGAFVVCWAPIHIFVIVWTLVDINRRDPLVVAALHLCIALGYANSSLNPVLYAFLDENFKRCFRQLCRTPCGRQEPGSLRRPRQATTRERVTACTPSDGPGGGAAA

## N[C@@H](Cc1ccc(O)cc1)C(=O)N1Cc2ccccc2C[C@H]1C(=O)N[C@@H](Cc1ccccc1)C(=O)N[C@@H](Cc1ccccc1)C(=O)O (H-Y[Tic]FF-OH)
[1]
  Activity: Active
[2]
  Ki: > 10 µM
[3]
  IC50: > 10 µM

## NC(=O)c1ccc(C[C@H](N)C(=O)N2Cc3ccccc3C[C@H]2C(=O)N[C@@H](Cc2ccccc2)C(=O)N[C@@H](Cc2ccccc2)C(=O)O)cc1 (H-[Phe(4-CONH2)][Tic]FF-OH)
[1]
  Activity: Active
[2]
  Ki: > 10 µM

## N[C@@H](Cc1ccc(C(=O)NCCc2cccc3ccccc23)cc1)C(=O)N1Cc2ccccc2C[C@H]1C(=O)N[C@@H](Cc1ccccc1)C(=O)N[C@@H](Cc1ccccc1)C(=O)O (H-[Phe(4-COOH)](NH(2-(1-naphthyl)ethyl))[Tic]FF-OH)
[2]
  Ki: > 10 µM
Cavia porcellus [4]
  Activity: inactive
[5]
  fold change (FC): 2
[6]
  fold change (FC): 5

## CCCCCCCCCCNC(=O)c1ccc(C[C@H](N)C(=O)N2Cc3ccccc3C[C@H]2C(=O)N[C@@H](Cc2ccccc2)C(=O)N[C@@H](Cc2ccccc2)C(=O)O)cc1 (H-[Phe(4-COOH)](NHDecyl)[Tic]FF-OH)
[2]
  Ki: > 10 µM

## CCCCCCNC(=O)c1ccc(C[C@H](N)C(=O)N2Cc3ccccc3C[C@H]2C(=O)N[C@@H](Cc2ccccc2)C(=O)N[C@@H](Cc2ccccc2)C(=O)O)cc1 (H-[Phe(4-COOH)](NHHex)[Tic]FF-OH)
[2]
  Ki: > 10 µM

## N[C@@H](Cc1ccc(C(=O)NCCc2c[nH]c3ccccc23)cc1)C(=O)N1Cc2ccccc2C[C@H]1C(=O)N[C@@H](Cc1ccccc1)C(=O)N[C@@H](Cc1ccccc1)C(=O)O (H-[Phe(4-COOH)](Tryptamide)[Tic]FF-OH)
Cavia porcellus [7]
  Activity: Active
[2]
  Ki: > 10 µM

## N[C@@H](Cc1ccc(C(=O)NCCc2ccc3ccccc3c2)cc1)C(=O)N1Cc2ccccc2C[C@H]1C(=O)N[C@@H](Cc1ccccc1)C(=O)N[C@@H](Cc1ccccc1)C(=O)O (H-[Phe(4-COOH)](X1)[Tic]FF-OH)
Cavia porcellus [7]
  Activity: Active
[2]
  Ki: > 10 µM
[5]
  fold change (FC): 2
[6]
  fold change (FC): 5

## N[C@@H](Cc1ccc(C(=O)NCCc2ccc(C3CCCCC3)cc2)cc1)C(=O)N1Cc2ccccc2C[C@H]1C(=O)N[C@@H](Cc1ccccc1)C(=O)N[C@@H](Cc1ccccc1)C(=O)O (H-[Phe(4-COOH)](X2)[Tic]FF-OH) [listing 1 of 2 here]
[2]
  Ki: > 10 µM

## N[C@@H](Cc1ccc(C(=O)NCCc2ccc(C3CCCCC3)cc2)cc1)C(=O)N1Cc2ccccc2C[C@H]1C(=O)N[C@@H](Cc1ccccc1)C(=O)N[C@@H](Cc1ccccc1)C(=O)O (H-[Phe(4-COOH)](X2)[Tic]FF-OH) [listing 2 of 2 here]
[8]
  IC35: 0.0234 µM

## N[C@@H](Cc1ccc(C(=O)NCCc2ccc(-c3ccccc3)cc2)cc1)C(=O)N1Cc2ccccc2CC1C(=O)N[C@@H](Cc1ccccc1)C(=O)N[C@@H](Cc1ccccc1)C(=O)O (some centres not stated) (H-[Phe(4-COOH)](X3)[ξTic]FF-OH)
[2]
  Ki: > 10 µM
[9]
  Ratio: 0.678
[10]
  ED50: 0.000413 µM
